Laboratory results taken from publication PMC11270681, “Synthesis and Systematic Investigation of Lepidiline A and Its Gold(I), Silver(I), and Copper(I) Complexes Using In Vitro Cancer Models and Multipotent Stem Cells” (ACS Omega, 2024).
pIC50: −log10 of the molar value. Values joined by “and” are separate entries in the source; they are usually repeats but may differ in a detail not shown here. Equal values may be shown once.

What was measured:
[1] = test system: MCF-7 breast cancer line; parameters: method as in PMID 34808062; conditions: cited from earlier work
[2] = test system: HL-60 leukemia line; parameters: method as in PMID 34808062; conditions: cited from earlier work
[3] = test system: BM-MSC; experiment: Cytotoxicity (PrestoBlue), bone marrow-derived mesenchymal stem cells; format: cell-based; conditions: 96 h incubation
Protocol: (§1) OVCAR-3 (OVC-3) and OVCAR-8 (OVC-8) ovarian serous adenocarcinomas, IGROV-1 ovarian endometrioid adenocarcinoma, OVCAR-5 (OVC-5) upper gastrointestinal carcinoma, MDA-MB-231 breast adenocarcinoma, and MCF-7 and T-47D invasive breast carcinomas were purchased from the Developmental Therapeutic Program of the National Cancer Institute (NIH, USA) and were cultured in an RPMI medium (Thermo Fisher). Mes-Sa and Mes-Sa/Dx5 uterine sarcoma cell lines were purchased from American Type Culture Collection (ATCC) and were kept in DMEM (Thermo Fisher). Mes-Sa B1 was transfected with the human MDR1 gene, and Mes-Sa mCherry, Mes-Sa B1 mOrange, and Mes-Sa/Dx5 eGFP were engineered to stably express the respective fluorescent proteins previously.[51] Culture media for cancer cells were supplemented with 10% fetal bovine serum, 2 mM L-glutamine, and 100 units/mL penicillin and 100 μg/mL streptomycin (Thermo Fisher). The adipose tissue and bone marrow-derived mesenchymal stem cells (AD-MSC and BM-MSC) were described previously[37] and were kept in DMEM-F12 (Gibco) supplemented with 10% fetal bovine serum, L-glutamine (Thermo Fisher), 0.1% gentamicin (Gibco, 50 mg/mL), and 16 ng/mL fibroblast growth factor 2 (Peprotech). Cells were kept at 37 °C under 5% CO2 and were negative for mycoplasma infection.
(§2) Cytotoxicities of the nonfluorescent cancer cells were assessed with a PrestoBlue cell viability reagent (Thermo Fisher). Briefly, 2500 cells/well were seeded on 384-well plates; then, the next-day drugs were added. After 72 h of incubation, PrestoBlue was added in a 10% final concentration, and after an hour of additional incubation, plates were measured with a PerkinElmer EnSpire plate reader at 555 nm/585 nm excitation/emission wavelengths. Stem cells were seeded on 96-well plates at a density of 5000 cells/well, and the following day, drugs were added for 96 h of incubation; then, viability was assessed with 10% PrestoBlue diluted in PBS. Fluorescent cancer cells were admixed before seeding on 384-well plates at an 800 cells/well density each, thus altogether 2400 cells/well. Drugs were added the following day, and the intensity of the fluorescent proteins was measured after 144 h of incubation at the respective fluorescent channels (excitation/emission, eGFP: 485 nm/510 nm; mCherry: 585 nm/610 nm; mOrange: 545 nm/567 nm). pIC50 values were calculated by a custom program written by Judit Sessler in C#. IC50 values and standard deviation were calculated from average pIC50 values from at least 3 independent measurements.

[4] = test system: Mes-Sa/Dx5; experiment: Cytotoxicity, doxorubicin-selected MDR uterine sarcoma line; format: cell-based; conditions: Mes-Sa/Dx5 (doxorubicin selected, ABCB1 expressing), fluorescent protein intensity after 144 h
Protocol: as §1, §2

[5] = test system: OVC-5; experiment: Cytotoxicity (PrestoBlue), upper gastrointestinal cancer line; format: cell-based; conditions: for pIC50: OVC-5, 72 h incubation, PrestoBlue
Protocol: as §1, §2

[6] = test system: Mes-Sa B1; experiment: Cytotoxicity, MDR1-transfected uterine sarcoma line; format: cell-based; conditions: Mes-Sa B1 (MDR1 transfected, ABCB1 expressing), fluorescent protein intensity after 144 h
Protocol: as §1, §2

[7] = Stability in serum-free culture medium by HPLC-UV; format: physicochemical; conditions: for AUC (HPLC-UV), single measurements 1-5 / AUC (HPLC-UV), average: serum-free culture medium
Protocol: Stability of the metal complexes in solution was measured in serum-free culture medium. The compounds were dissolved in DMSO right before the experiment. Solutions of Cu-LA and Ag-LA contained 1% final volume of DMSO, while Au-LA contained 30% DMSO. Samples were taken right after dilution, and after 1 h, 2 h, 4 h, 8 h, 16 h, 32 and 48 h, and measured by HPLC-UV.

[8] = test system: Mes-Sa; experiment: H2DCFDA intracellular ROS production assay; format: cell-based; conditions: 50 μM, 4 h incubation
Protocol: (§3) To assess intracellular ROS production, we used a H2DCFDA cellular ROS assay kit (ab113851, Abcam) according to the manufacturer’s instructions. Briefly, 20,000 cells were seeded on 96-well plates. On the following day, cells were washed, and H2DCFDA solution, prepared by avoiding direct light, was added for 45 min. Next, cells were washed, and 50 μM samples of test compounds were aspirated on the cells in a complete and phenol red-free medium (FluoroBrite, Thermo Fisher). At each hour, fluorescence of 2′,7′-dichlorofluorescein (DCF) was measured at 484 nm/535 nm excitation/emission wavelengths. Values were normalized to 0 h measurements. Values indicate at least 3 independent measurements.

[9] = test system: Mes-Sa; experiment: Cytotoxicity, uterine sarcoma parental line; format: cell-based; conditions: fluorescent protein intensity after 144 h
Protocol: as §1, §2

[10] = test system: cancer lines; experiment: Cytotoxicity, range over cancer lines; format: cell-based; conditions: all cancer lines tested; read-out: IC50 range over cancer lines
Protocol: as §1
(§4) Cytotoxicities of the nonfluorescent cancer cells were assessed with a PrestoBlue cell viability reagent (Thermo Fisher). Briefly, 2500 cells/well were seeded on 384-well plates; then, the next-day drugs were added. After 72 h of incubation, PrestoBlue was added in a 10% final concentration, and after an hour of additional incubation, plates were measured with a PerkinElmer EnSpire plate reader at 555 nm/585 nm excitation/emission wavelengths. Stem cells were seeded on 96-well plates at a density of 5000 cells/well, and the following day, drugs were added for 96 h of incubation; then, viability was assessed with 10% PrestoBlue diluted in PBS. […] IC50 values and standard deviation were calculated from average pIC50 values from at least 3 independent measurements.

[11] = test system: Bone marrow MSCs (BM-MSC); experiment: Cytotoxicity, range over bone marrow MSCs; format: cell-based; conditions: BM-MSC and immortalized BM-MSC
Protocol: as §1, §2

[12] = test system: im. BM-MSC; experiment: Cytotoxicity (PrestoBlue), immortalized bone marrow MSC; format: cell-based; conditions: 96 h incubation
Protocol: as §1, §2

[13] = test system: 3 ovarium cancer lines (IGROV-1, OVC-3, and OVC-8); experiment: Cytotoxicity, range over 3 ovarium cancer lines; format: cell-based; conditions: IGROV-1, OVC-3, OVC-8
Protocol: as §1, §2

[14] = test system: MSCs; experiment: Cytotoxicity, range over MSCs; format: cell-based; conditions: AD-MSC, BM-MSC, immortalized BM-MSC
Protocol: as §1, §4

[15] = test system: OVC-8; experiment: Cytotoxicity (PrestoBlue), ovarian cancer line; format: cell-based; conditions: OVC-8, 72 h incubation
Protocol: as §1, §2

[16] = test system: OVC-3; experiment: Cytotoxicity (PrestoBlue), ovarian cancer line; format: cell-based; conditions: OVC-3, 72 h incubation
Protocol: as §1, §2

[17] = test system: IGROV-1; experiment: Cytotoxicity (PrestoBlue), ovarian cancer line; format: cell-based; conditions: IGROV-1, 72 h incubation
Protocol: as §1, §2

[18] = test system: 3 breast cancer cell lines (MDA-MB-231, MCF-7 and T-47D); experiment: Cytotoxicity, range over 3 breast cancer cell lines; format: cell-based; conditions: MDA-MB-231, MCF-7, T-47D
Protocol: as §1, §2

[19] = test system: AD-MSC; experiment: Cytotoxicity (PrestoBlue), adipose-derived mesenchymal stem cells; format: cell-based; conditions: 96 h incubation
Protocol: as §1, §2

[20] = test system: MDA-MB-231; experiment: Cytotoxicity (PrestoBlue), breast cancer line; format: cell-based; conditions: MDA-MB-231, 72 h incubation
Protocol: as §1, §2

[21] = test system: MCF-7; experiment: Cytotoxicity (PrestoBlue), breast cancer line; format: cell-based
Protocol: as §1, §2

[22] = test system: T-47D; experiment: Cytotoxicity (PrestoBlue), breast cancer line; format: cell-based; conditions: 72 h incubation
Protocol: as §1, §2

[23] = test system: panel of cancer cell lines of various origins; parameters: method as in PMID 12932133; conditions: up to 10 μg/mL (approximately 60 μM for lepidiline A); cited from earlier work
[24] = test system: MCF-7; experiment: H2DCFDA intracellular ROS production assay; format: cell-based; conditions: MCF-7, 50 μM, 4 h incubation
Protocol: as §3

[25] = test system: T-47D; experiment: H2DCFDA intracellular ROS production assay; format: cell-based; conditions: 50 μM, 4 h incubation
Protocol: as §3

## COc1cccc(C[n+]2cn(Cc3ccccc3)c(C)c2C)c1 [lepidiline C]
[1]
  pIC50: 4.12
[2]
  pIC50: ~4.52

## Cc1c(C)n(Cc2ccccc2)[c](=[Au][Cl])n1Cc1ccccc1 [Au-LA, Chloro-(1,3-dibenzyl-4,5-dimethyl-imidazol-2-ylidene)gold]
[3]
  pIC50: 5.12
[4]
  pIC50: 4.87
[5]
  pIC50: 4.61
[6]
  pIC50: 4.89
[7]; 0 h
  AUC (HPLC-UV), single measurements 1-5: 700 and 697 and 698
[7]; 0 h, Cu-LA, Ag-LA 1% DMSO, Au-LA 30% DMSO
  AUC (HPLC-UV), average: 698
[7]; 1 h
  AUC (HPLC-UV), average: 677
  AUC (HPLC-UV), single measurements 1-5: 690 and 685 and 674 and 672 and 665
[7]; 2 h
  AUC (HPLC-UV), average: 643
  AUC (HPLC-UV), single measurements 1-5: 645 and 644 and 640 and 643
[7]; 4 h
  AUC (HPLC-UV), average: 606
  AUC (HPLC-UV), single measurements 1-5: 614 and 605 and 604 and 603
[7]; 8 h
  AUC (HPLC-UV), average: 456
  AUC (HPLC-UV), single measurements 1-5: 463 and 457 and 456 and 454 and 451
[7]; 16 h
  AUC (HPLC-UV), average: 351
  AUC (HPLC-UV), single measurements 1-5: 354 and 351 and 353 and 350 and 345
[7]; 32 h
  AUC (HPLC-UV), average: 177
  AUC (HPLC-UV), single measurements 1-5: 180 and 173 and 174 and 172 and 187
[7]; 48 h
  AUC (HPLC-UV), average: 141
  AUC (HPLC-UV), single measurements 1-5: 142 and 143 and 140 and 135
[7]; HPLC-UV, observed 48 h
  Stability in serum-free culture medium: decreased after 4 h
[8]
  More ROS compared to the medium: ~50%
[9]
  pIC50: 5.04
[10]
  pIC50: 4.61 to 5.11
[11]
  pIC50: 4.80 to 5.24
[12]
  pIC50: 5.24
[13]
  pIC50: 4.76 to 4.98
[14]
  pIC50: 5.12 to 5.24
[15]
  pIC50: 4.90
[16]
  pIC50: 4.78
[17]
  pIC50: 4.98
[18]
  pIC50: 4.92 to 5.24
[19]
  pIC50: 5.24
[20]
  pIC50: 5.02
[21]; MCF-7, 72 h incubation
  pIC50: 5.02
[22]
  pIC50: 5.11

## Cc1c(C)[n+](Cc2ccccc2)cn1Cc1ccccc1.[Cl-] [LA, 1,3-Dibenzyl-4,5-dimethyl-imidazol-1-ium-chloride]
[3]; BMMSC
  pIC50: 4.16
[23]
  Toxicity against a panel of cancer cell lines: low or no toxicity
[4]; Homo sapiens, MES-SA/Dx5, 144 h
  pIC50: < 3.70
[5]
  pIC50: < 3.70
[5]; OVC-5 vs ovarian cancer lines
  Lower susceptibility of OVC-5 compared to the ovarian cancer lines: 4 fold
[6]; Homo sapiens
  pIC50: < 3.70
[8]
  Intracellular ROS production compared to the medium: did not provoke extra ROS production
[24]
  Intracellular ROS production compared to the medium: did not provoke extra ROS production
[25]
  Intracellular ROS production compared to the medium: did not provoke extra ROS production
[9]; Homo sapiens
  pIC50: 4.56
[11]; BMMSC
  pIC50: 4.01 to 4.32
[12]; BMMSC
  pIC50: 4.32
[13]; Homo sapiens
  pIC50: 4.14 to 4.32
[2]
  pIC50: ~4.52
[15]
  pIC50: 4.24
[16]
  pIC50: 4.32
[17]; Homo sapiens
  pIC50: 4.22
[19]; listed as Lepidiline A
  pIC50: 3.74
[19]; Mesenchymal stem cells, 96 h
  pIC50: 3.73
[20]; Homo sapiens
  pIC50: 4.04
[21]; Homo sapiens, MCF7, MCF-7, 72 h incubation
  pIC50: 4.14
[22]; Homo sapiens, T47D
  pIC50: 4.79

## Cc1c(C)[n+](Cc2ccccc2)c(C)n1Cc1ccccc1 [lepidiline B, reference compound]
[23]
  Toxicity against a panel of cancer cell lines: low or no toxicity
[2]
  pIC50: 5.42

## CC(=O)OC[C@H]1O[C@@H]([S-])[C@H](OC(C)=O)[C@@H](OC(C)=O)[C@@H]1OC(C)=O.CCP(CC)CC.[Au+] [Auranofin, auranofin, reference compound]
[3]
  pIC50: 5.54
[4]
  pIC50: 5.85
[5]
  pIC50: 5.16
[5]; listed as auranofin
  pIC50: 5.15
[6]
  pIC50: 5.49
[9]
  pIC50: 5.66
[10]
  pIC50: 5.15 to 5.92
[12]
  pIC50: 5.58
[13]
  pIC50: 5.64 to 5.77
[14]
  pIC50: 5.54 to 5.66
[15]
  pIC50: 5.64
[16]
  pIC50: 5.77
[17]
  pIC50: 5.71
[18]
  pIC50: 5.55 to 5.92
[19]
  pIC50: 5.67
[20]
  pIC50: 5.94
[21]; MCF-7, 72 h incubation
  pIC50: 5.55
[22]
  pIC50: 5.64
